Reference: patent publication US12419307B2, “Mixtures comprising indazole pesticides” (FMC Corporation, priority 2019, dated 2025)
Like-named read-outs stand apart in the source and are kept apart here.

Experiments:
Format in all cases: in vivo
[1] = test system: Western Flower Thrips (Frankliniella occidentalis Pergande); assay: Test B: Western Flower Thrips control on bean plants, plant damage rating converted to % plant protection after 7 days; conditions: for pest or weed control at 3.18 ppm / pest or weed control at 9.75 ppm / pest or weed control at 1.5 ppm / pest or weed control at 4.5 ppm / pest or weed control at 2.93 ppm / pest or weed control at 16.1 ppm: Frankliniella occidentalis, 168 h, read-out: Plant Protection (obs); for Plant Damage (obs): Table 3a; for Plant Damage (obs) / Plant Protection (obs): applied alone
Description: (§1) The pest control protection afforded by the mixtures or compositions is not limited, however, to these species. The analysis of enhanced activity between the mixtures or compositions was determined using Colby's equation. The average % mortality data for the test compounds alone were inserted into the Colby's equation. If the observed (obs) average % mortality was higher than “p”, the expected (exp) % mortality, the mixture or composition had enhanced effects. If the observed average % mortality was equal to or lower than the expected mortality, the mixture or composition either had no enhanced effect. For bioassays where insect feeding damage was evaluated, enhanced activity is identified when the observed plant damage is less than the expected plant damage rating; ratings ranged between 0 (no damage) and 10 (dead plant) and each value was converted to a % plant protection. 100−(Obs Plant Damage*10)
Thus, a plant given a plant damage rating of 3 out of 10 is equivalent to 70% plant protection In all of these tests, compounds of Formula I are Compounds 1 (Cpd 1), 2 (Cpd2), and 3 (Cpd3) and compounds of Formula II are compounds 4 (Cpd4) and 5 (Cpd 5).
For evaluating control of the Western Flower Thrips (Frankliniella occidentalis Pergande) through contact and/or systemic means, each test unit consisted of a small open container with a 5- to 7-day-old bean (var. Soleil) plant inside.
Test solutions were formulated and sprayed with 3 replications as described for Test A. After spraying, the test units were allowed to dry for 1 hour, 22 to 27 adult thrips were added to each unit and then a black, screened cap was placed on top. The test units were held for 7 days at 25° C. and 45-55% relative humidity. To evaluate the level of plant protection provided by each treatment, each test unit was then visually assessed for plant damage inflicted by insect feeding and rated 0-10, where 0=undamaged and 10=plant is dead; the results are listed in Tables 3a-g.

[2] = test system: Potato Leafhopper (Empoasca fabae Harris); assay: Test C: Potato Leafhopper control on bean plants, insect mortality after 6 days; conditions: read-out: % Mortality (obs)
Description: as §1
For evaluating control of Potato Leafhopper (Empoasca fabae Harris) through contact and/or systemic means, each test unit consisted of a small open container with a 5- to 6-day-old Longio bean plant (primary leaves emerged) inside. White sand was added to the top of the soil, and one of the primary leaves was excised prior to application. Test compounds were formulated and sprayed with 3 replications as described for Test A. After spraying, the test units were allowed to dry for 1 hour before they were infested with 5 potato leafhoppers (18- to 21-day-old adults). A black, screened cap was placed on the top of each container. The test units were held for 6 days in a growth chamber at 19-21° C. and 50-70% relative humidity.

[3] = test system: diamondback moth (Plutella xylostella L.); assay: Test E: diamondback moth control on mustard plants, contact and/or systemic, plant damage rating after 6 days
Description: as §1
For evaluating control of diamondback moth (Plutella xylostella L.) through contact and/or systemic means, each test unit consisted of a small open container with a 10- to 12-day-old mustard plant inside. Test compounds were formulated and sprayed with 3 replications as described for Test A. After spraying, the test units were allowed to dry for 1 hour before they were infested with 30-50 neonate larvae. A black, screened cap was placed on the top of each container. The test units were held for 6 days in a growth chamber at 24-25° C. and 70% relative humidity. Each test unit was then visually assessed for plant damage and rated 0-10, where 0=undamaged and 10=plant is dead; the results are listed in Tables 6a-b.

[4] = test system: fall armyworm (Spodoptera frugiperda (J. E. Smith)); assay: Test E: fall armyworm control on corn plants, plant damage rating and mortality after 6 days; conditions: Spodoptera frugiperda, 144 h, Table 6e, read-out: Plant Protection (obs)
Description: as §1
For evaluating control of fall armyworm (Spodoptera frugiperda (J. E. Smith)) the test unit consisted of a small open container with a 4-5-day-old corn (maize) plant inside. This was pre-infested with 10-15 1-day-old larvae on a piece of insect diet. Test compounds were formulated and sprayed with 3 replications as described for Test A. After spraying of the formulated test compound, the test units were maintained in a growth chamber for 6 days at 25° C. and 70% relative humidity. Plant feeding damage was then visually assessed based on foliage consumed, and larvae were assessed for mortality. Each test unit was then visually assessed for plant damage and rated 0-10, where 0=undamaged and 10=plant is dead; the results are listed in Tables 6d-i.

SMILES: CSCC(C)(C)NC(=O)c1ccc(F)c2nn(-c3cccnc3)cc12 [Cpd 1, N-[1,1-dimethyl-2-(methylthio)ethyl]-7-fluoro-2-(3-pyridinyl)-2H-indazole-4-carboxamide]
- pest or weed control at 3.18 ppm ([1]; Table 3e, 3.18 ppm): 76.7%
- pest or weed control at 9.75 ppm ([1]; Table 3e, 9.75 ppm): 66.7%
- pest or weed control at 3.18 ppm ([1]; Table 3f, 3.18 ppm): 33.3%
- pest or weed control at 9.75 ppm ([1]; Table 3f, 9.75 ppm): 80%
- pest or weed control at 3.18 ppm ([1]; Table 3g, 3.18 ppm): 10%
- pest or weed control at 9.75 ppm ([1]; Table 3g, 9.75 ppm): 76.7%
- pest or weed control at 3.18 ppm ([1]; Table 3d, 3.18 ppm): 63.3%
- pest or weed control at 9.75 ppm ([1]; Table 3d, 9.75 ppm): 90%
- Plant Damage (obs) ([1]; 3.18 ppm): 33.3%
- Plant Damage (obs) ([1]; 9.75 ppm): 73.3%
- Plant Protection (obs) ([1]; Table 3b, 3.18 ppm): 73.3%
- Plant Protection (obs) ([1]; Table 3b, 9.75 ppm): 76.7%
- Plant Protection (obs) ([1]; Table 3c, 3.18 ppm): 63.3%
- Plant Protection (obs) ([1]; Table 3c, 9.75 ppm): 83.3%
- mortality at 50 ppm ([2]; Table 4a): 60%
- mortality at 250 ppm ([2]; Table 4a): 35.7%
- mortality at 50 ppm ([2]; Table 4b): 20%
- mortality at 250 ppm ([2]; Table 4b): 6.7%
- mortality at 50 ppm ([2]; Table 4c): 6.7%
- mortality at 250 ppm ([2]; Table 4c): 33.3%
- Plant Protection (obs) ([3]; Table 6a, 50 ppm): 0.0
- Plant Protection (obs) ([3]; Table 6a, 250 ppm): 0.0
- Plant Protection (obs) ([3]; Table 6b, 50 ppm): 0.0
- Plant Protection (obs) ([3]; Table 6b, 250 ppm): 0.0
- pest or weed control at 50 ppm [4]: 0%
- pest or weed control at 250 ppm [4]: 0%

SMILES: C[S+]([O-])CC(C)(C)NC(=O)c1ccc(F)c2nn(-c3cccnc3)cc12 (stereo not shown) [Cpd 2, N-[1,1-dimethyl-2-(methylsulfinyl)ethyl]-7-fluoro-2-(3-pyridinyl)-2H-indazole-4-carboxamide]
- pest or weed control at 1.5 ppm ([1]; Table 3e, 1.5 ppm): 66.7%
- pest or weed control at 4.5 ppm ([1]; Table 3e, 4.5 ppm): 43.3%
- pest or weed control at 1.5 ppm ([1]; Table 3f, 1.5 ppm): 43.3%
- pest or weed control at 4.5 ppm ([1]; Table 3f, 4.5 ppm): 73.3%
- pest or weed control at 1.5 ppm ([1]; Table 3g, 1.5 ppm): 16.7%
- pest or weed control at 4.5 ppm ([1]; Table 3g, 4.5 ppm): 33.3%
- pest or weed control at 1.5 ppm ([1]; Table 3d, 1.5 ppm): 36.7%
- pest or weed control at 4.5 ppm ([1]; Table 3d, 4.5 ppm): 76.7%
- Plant Damage (obs) ([1]; 1.5 ppm): 13.3%
- Plant Damage (obs) ([1]; 4.5 ppm): 56.7%
- Plant Protection (obs) ([1]; Table 3b, 1.5 ppm): 16.7%
- Plant Protection (obs) ([1]; Table 3b, 4.5 ppm): 83.3%
- Plant Protection (obs) ([1]; Table 3c, 1.5 ppm): 43.3%
- Plant Protection (obs) ([1]; Table 3c, 4.5 ppm): 80.0%
- mortality at 50 ppm ([2]; Table 4a): 46.7%
- mortality at 250 ppm ([2]; Table 4a): 86.7%
- mortality at 50 ppm ([2]; Table 4b): 6.7%
- mortality at 250 ppm ([2]; Table 4b): 85.7%
- mortality at 50 ppm ([2]; Table 4c): 20%
- mortality at 250 ppm ([2]; Table 4c): 73.3%
- Plant Protection (obs) ([3]; Table 6a, 50 ppm): 0.0
- Plant Protection (obs) ([3]; Table 6a, 250 ppm): 0.0
- Plant Protection (obs) ([3]; Table 6b, 50 ppm): 0.0
- Plant Protection (obs) ([3]; Table 6b, 250 ppm): 0.0
- pest or weed control at 50 ppm [4]: 0%
- pest or weed control at 250 ppm [4]: 0%

SMILES: CC(C)(CS(C)(=O)=O)NC(=O)c1ccc(F)c2nn(-c3cccnc3)cc12 [Cpd 3, N-[1,1-dimethyl-2-(methylsulfonyl)ethyl]-7-fluoro-2-(3-pyridinyl)-2H-indazole-4-carboxamide]
- pest or weed control at 2.93 ppm ([1]; Table 3e, 2.93 ppm): 83.3%
- pest or weed control at 16.1 ppm ([1]; Table 3e, 16.1 ppm): 80%
- pest or weed control at 2.93 ppm ([1]; Table 3f, 2.93 ppm): 40%
- pest or weed control at 16.1 ppm ([1]; Table 3f, 16.1 ppm): 86.7%
- pest or weed control at 2.93 ppm ([1]; Table 3g, 2.93 ppm): 43.3%
- pest or weed control at 16.1 ppm ([1]; Table 3g, 16.1 ppm): 70%
- Plant Damage (obs) ([1]; 2.93 ppm): 13.3%
- Plant Damage (obs) ([1]; 16.1 ppm): 83.3%
- Plant Protection (obs) ([1]; Table 3b, 2.93 ppm): 40.0%
- Plant Protection (obs) ([1]; Table 3b, 16.1 ppm): 76.7%
- Plant Protection (obs) ([1]; Table 3c, 2.93 ppm): 33.3%
- Plant Protection (obs) ([1]; Table 3c, 16.1 ppm): 80.0%
- mortality at 50 ppm ([2]; Table 4a): 0%
- mortality at 250 ppm ([2]; Table 4a): 0%
- mortality at 50 ppm ([2]; Table 4b): 13.3%
- mortality at 250 ppm ([2]; Table 4b): 0%
- mortality at 50 ppm ([2]; Table 4c): 6.7%
- mortality at 250 ppm ([2]; Table 4c): 0%
- Plant Protection (obs) ([3]; Table 6a, 50 ppm): 0.0
- Plant Protection (obs) ([3]; Table 6a, 250 ppm): 0.0
- Plant Protection (obs) ([3]; Table 6b, 50 ppm): 0.0
- Plant Protection (obs) ([3]; Table 6b, 250 ppm): 0.0
- pest or weed control at 50 ppm [4]: 0%
- pest or weed control at 250 ppm [4]: 0%
